From patent publication EP0821957A2 (priority 1996, dated 1998)
pKi: −log10 of the molar value.

Key:
[1] = molecular target: m4 receptors (Homo sapiens, UniProt P08173); assay type: cell-based; details: CHO m4 cells treated with pertussis toxin
[2] = molecular target: muscarinic cholinergic receptors; test: ^3H-oxotremorine-M binding inhibition; details: inhibition of binding of ^3H-oxotremorine-M; read-out: inhibition costant (Ki)

Sequence of m4 receptors (P08173 whole entry): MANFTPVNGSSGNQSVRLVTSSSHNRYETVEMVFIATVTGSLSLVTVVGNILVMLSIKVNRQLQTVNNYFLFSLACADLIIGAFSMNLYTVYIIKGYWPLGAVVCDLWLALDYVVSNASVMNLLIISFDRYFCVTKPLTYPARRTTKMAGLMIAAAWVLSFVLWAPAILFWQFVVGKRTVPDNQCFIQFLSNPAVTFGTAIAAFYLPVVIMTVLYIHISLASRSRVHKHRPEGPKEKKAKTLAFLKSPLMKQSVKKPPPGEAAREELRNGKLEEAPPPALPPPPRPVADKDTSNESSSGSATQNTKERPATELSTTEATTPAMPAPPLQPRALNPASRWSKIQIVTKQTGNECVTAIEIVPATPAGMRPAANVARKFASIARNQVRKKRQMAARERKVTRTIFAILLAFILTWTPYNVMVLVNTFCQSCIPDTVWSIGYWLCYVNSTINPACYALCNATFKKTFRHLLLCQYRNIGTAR

**Q.** How did the “formation of cAMP” value [1] turn out when `CCCCCCOc1nsnc1C1=CCCN(C)C1` [Xanomeline, 3-(4-hexyloxy-1,2,5-thiadiazol-3-yl)-1,2,5,6-tetrahydro-1-methylpyridine] was run?
**A.** efficaciously and potently stimulated the formation of cAMP

**Q.** What about the pKi [2] of the same compound?
**A.** 8.70
